Source: ChEMBL document CHEMBL1201862, “PubChem BioAssay data set” (2004)
Calls of active or inactive are those of the source.

How the values were obtained:
BJ = experiment: BJ-TERT-LT-ST fibroblast viability loss – cell-based, RAS-independent, luminescence, dose response (AID 1935); format: functional; settings: Homo sapiens;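 further: BJ fibroblasts immortalized with TERT plus LT and ST oncogenes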
[1] = DRD fibroblast viability loss – cell-based, non-viral oncogenic, luminescence, dose response (AID 1934); format: functional; settings: Homo sapiens
Troponin, cardiac muscle = Troponin, cardiac muscle (Homo sapiens, UniProt P19429+P45379+P63316); experiment: Fluorescence-based biochemical high throughput dose response assay for activators of the calcium sensitivity of cardiac Regulated Thin Filaments (RTF). [Related pubchem assays (depositor defined):AID493008, AID493018, AID504382, AID504383]; format: protein-complex assay
[2] = luciferase reporter signal suppression in cells – H4 neuroglioma cells, luminescence, dose response (AID 1990); format: functional, cell-based
[3] = molecular target: Mothers against decapentaplegic homolog 3 (Homo sapiens, UniProt P84022); experiment: inhibitors of SMAD-driven TGF-beta signaling – dose response (AID 715); format: functional
14-3-3 protein gamma = 14-3-3 protein gamma (Homo sapiens, UniProt P61981); experiment: modulators of 14-3-3 gamma client binding – dose response (AID 711); format: functional
[4] = molecular target: T1, Tyrosine-protein phosphatase non-receptor type 5 (Homo sapiens, UniProt P54829); experiment: PTPN5 enzyme inhibition – biochemical, fluorescence intensity, uHTS hits, confirmation (AID 602372); format: functional; settings: read-out: IC50_Mean
T1 sequence (P54829 whole entry): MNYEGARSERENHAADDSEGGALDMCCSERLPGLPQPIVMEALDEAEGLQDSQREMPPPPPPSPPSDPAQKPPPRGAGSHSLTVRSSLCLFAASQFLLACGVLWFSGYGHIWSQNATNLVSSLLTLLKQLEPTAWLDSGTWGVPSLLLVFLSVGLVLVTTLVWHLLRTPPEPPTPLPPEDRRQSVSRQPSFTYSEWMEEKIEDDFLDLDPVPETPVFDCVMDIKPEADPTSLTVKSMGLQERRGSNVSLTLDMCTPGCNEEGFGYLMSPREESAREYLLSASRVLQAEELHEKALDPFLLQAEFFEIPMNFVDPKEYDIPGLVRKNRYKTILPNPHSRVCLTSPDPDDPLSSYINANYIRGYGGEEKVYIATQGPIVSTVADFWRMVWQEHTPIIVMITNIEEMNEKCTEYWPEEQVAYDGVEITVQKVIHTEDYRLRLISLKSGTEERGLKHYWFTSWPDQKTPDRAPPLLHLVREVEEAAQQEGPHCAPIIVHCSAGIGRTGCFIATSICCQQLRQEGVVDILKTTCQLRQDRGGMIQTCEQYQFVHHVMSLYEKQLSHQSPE

[5] = molecular target: T2, Tyrosine-protein phosphatase non-receptor type 22 (Homo sapiens, UniProt Q9Y2R2); experiment: SAR LYP1 Fluorescent Assay using pCAP substrate for In Vitro dose response studies - Set 4. [Related pubchem assays (depositor defined):AID1779, AID1784]; format: functional
T2 sequence (Q9Y2R2 whole entry): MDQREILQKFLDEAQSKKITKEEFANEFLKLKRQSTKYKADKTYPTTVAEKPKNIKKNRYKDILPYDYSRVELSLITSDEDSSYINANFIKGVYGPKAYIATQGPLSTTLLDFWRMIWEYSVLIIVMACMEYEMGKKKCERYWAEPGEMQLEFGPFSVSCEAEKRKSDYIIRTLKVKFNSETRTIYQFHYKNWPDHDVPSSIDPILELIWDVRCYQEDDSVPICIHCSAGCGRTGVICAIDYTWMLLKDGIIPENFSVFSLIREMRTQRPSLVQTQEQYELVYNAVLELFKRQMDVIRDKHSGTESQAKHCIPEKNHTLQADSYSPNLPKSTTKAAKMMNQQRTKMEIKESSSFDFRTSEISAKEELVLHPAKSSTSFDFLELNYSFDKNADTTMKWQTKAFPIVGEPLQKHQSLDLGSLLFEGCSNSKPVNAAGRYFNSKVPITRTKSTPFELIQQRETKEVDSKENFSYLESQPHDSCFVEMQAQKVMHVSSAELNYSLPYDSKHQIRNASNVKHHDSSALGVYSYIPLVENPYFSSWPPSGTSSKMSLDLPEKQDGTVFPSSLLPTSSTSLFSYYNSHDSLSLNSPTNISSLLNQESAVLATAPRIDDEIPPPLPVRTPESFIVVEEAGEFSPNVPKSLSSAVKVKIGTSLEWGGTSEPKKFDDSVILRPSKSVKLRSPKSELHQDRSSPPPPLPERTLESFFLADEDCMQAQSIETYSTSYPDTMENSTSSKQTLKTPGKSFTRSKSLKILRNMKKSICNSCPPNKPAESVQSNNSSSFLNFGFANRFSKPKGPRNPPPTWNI

[6] = molecular target: T3, Glutathione-S-transferase (Schistosoma japonicum, UniProt Q26513); experiment: GST-antibody interaction or FRET quenching – biochemical, TR-FRET, artefact control for Vif-APOBEC3G degradation inhibitor project, dose response (AID 1117362); format: functional
T3 sequence (Q26513 whole entry): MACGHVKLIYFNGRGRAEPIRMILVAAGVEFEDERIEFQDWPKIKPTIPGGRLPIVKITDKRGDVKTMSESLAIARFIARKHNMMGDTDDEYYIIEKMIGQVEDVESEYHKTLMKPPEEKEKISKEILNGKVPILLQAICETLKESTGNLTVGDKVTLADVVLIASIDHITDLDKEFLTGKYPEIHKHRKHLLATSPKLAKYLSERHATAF

Sequence of Mothers against decapentaplegic homolog 3 (P84022 whole entry): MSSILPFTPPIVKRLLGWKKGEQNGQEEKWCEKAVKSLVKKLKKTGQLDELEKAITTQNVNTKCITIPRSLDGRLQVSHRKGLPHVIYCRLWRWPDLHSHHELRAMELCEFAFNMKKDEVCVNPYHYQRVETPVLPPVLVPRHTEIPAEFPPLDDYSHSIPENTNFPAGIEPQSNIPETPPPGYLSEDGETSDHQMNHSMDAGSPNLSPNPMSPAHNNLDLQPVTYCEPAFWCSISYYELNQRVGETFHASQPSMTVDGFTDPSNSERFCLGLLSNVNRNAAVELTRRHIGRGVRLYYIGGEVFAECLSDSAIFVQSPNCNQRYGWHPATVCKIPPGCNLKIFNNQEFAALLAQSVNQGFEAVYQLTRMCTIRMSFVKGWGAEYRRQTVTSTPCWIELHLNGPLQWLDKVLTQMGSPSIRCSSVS
Sequence of 14-3-3 protein gamma (P61981 whole entry): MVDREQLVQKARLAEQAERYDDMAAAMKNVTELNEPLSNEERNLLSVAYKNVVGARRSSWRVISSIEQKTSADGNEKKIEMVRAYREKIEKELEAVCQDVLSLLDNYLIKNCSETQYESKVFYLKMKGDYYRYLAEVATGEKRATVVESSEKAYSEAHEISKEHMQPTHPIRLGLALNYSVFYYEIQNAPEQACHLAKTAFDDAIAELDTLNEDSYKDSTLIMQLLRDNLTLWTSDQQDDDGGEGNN

Compound: CCN1/C(=C/c2ccc3cc(C)ccc3[n+]2CC)Sc2cc(C)c(C)cc21
- EC50 (BJ): 13.7 µM (inconclusive)
- EC50 [1]: 1.43 µM (active)

Compound: Nc1ccc2nc3c(O)nc(S)nc3nc2c1
- EC50 (Troponin, cardiac muscle): 1.14 µM (active)

Compound: Cc1oc2c(c1C(=O)c1ccccc1)C(=O)C(=O)c1ccccc1-2
- EC50 [2]: > 120 µM (not active)

Compound: O=C1CCCC2=C1C1(O)C(=O)c3ccccc3C1(O)O2 (centres undefined)
- IC50 [3]: 2.73 µM (active)
- IC50 (14-3-3 protein gamma): > 50 µM (not active)

Compound: CSc1ccc(C=NNc2ccc(S(=O)(=O)Nc3ccccc3C(=O)O)cc2[N+](=O)[O-])cc1
- IC50 [4]: 4.12 µM (active)

Compound: O=C(O)COc1ccc(/C=N/NC(=O)c2ccc(-c3csc(Nc4ccc(Cl)cc4)n3)cc2)cc1
- IC50 [5]: 0.527 µM (active)

Compound: COc1cc(NCCCNC(C)C)c2nccc(C)c2c1
- IC50 [6]: 28.7 µM (active)
